In patent US20260223848A1, “METHOD OF INCREASING SUGAR PRODUCTION FROM SUGARCANE” (CORTEVA AGRISCIENCE LLC, priority 2021, published 2026):

What was measured:
Format in all cases: in vivo
sugarcane [1] = assay: Sugarcane ripening field studies, florpyrauxifen-benzyl and haloxyfop-P-methyl; conditions: for ripening performance: versus the standards trinexapac and sulfometuron
sugarcane [2] = assay: Sugarcane ripening field studies, halauxifen-methyl plus haloxyfop-P-methyl; conditions: six field studies, 30 days after application, rate g ai/ha: halauxifen-methyl 2.16, mixture 27 + 2.16, haloxyfop-P-methyl 27, sulfometuron 15, trinexapac 250; for Gain Fiber: untreated 0.5; for Gain POL: untreated 2.7; for Gain Purity: untreated 6.8; for Gain TRS: untreated 23.4
ratoon sugarcane = assay: Ratoon sugarcane control field studies; conditions: 2160 g ai/ha, post application, 4 to 6 leaves, 50 to 60 cm
Description: In order to study the activity of Haloxyfop-P-methyl as possible herbicide for ratoon sugarcane control, field studies were carried out. Haloxyfop-P-methyl was tested at 124; 248; 373; 620 and 1240 g ai/ha plus mineral oil at 0.5% v/v and compared to key standard, as glyphosate (Glizmax Prime®) at 2160 g ae/ha. Trials were sprayed postemergence with 4 to 6 leaves or 50 to 60 cm of ratoon sugarcane regrowth and assessed percentage of control at 14; 30; 45 and 60 days after application (DAA).

[3] = 30 days after application, rate g ai/ha: haloxyfop-P-methyl 27, florpyrauxifen-benzyl 2.2, mixture 27 + 2.2, sulfometuron 15, trinexapac 250, untreated 0.6
[4] = 30 days after application, rate g ai/ha: haloxyfop-P-methyl 27, florpyrauxifen-benzyl 2.2, mixture 27 + 2.2, sulfometuron 15, trinexapac 250, untreated 2.8
[5] = 30 days after application, rate g ai/ha: haloxyfop-P-methyl 27, florpyrauxifen-benzyl 2.2, mixture 27 + 2.2, sulfometuron 15, trinexapac 250, untreated 7.2
[6] = 30 days after application, rate g ai/ha: haloxyfop-P-methyl 27, florpyrauxifen-benzyl 2.2, mixture 27 + 2.2, sulfometuron 15, trinexapac 250, untreated 25.2
[7] = 45 days after application, rate g ai/ha: haloxyfop-P-methyl 27, florpyrauxifen-benzyl 2.2, mixture 27 + 2.2, sulfometuron 15, trinexapac 250, untreated 1.2
[8] = 45 days after application, rate g ai/ha: haloxyfop-P-methyl 27, florpyrauxifen-benzyl 2.2, mixture 27 + 2.2, sulfometuron 15, trinexapac 250, untreated 4.2
[9] = 45 days after application, rate g ai/ha: haloxyfop-P-methyl 27, florpyrauxifen-benzyl 2.2, mixture 27 + 2.2, sulfometuron 15, trinexapac 250, untreated 7.7
[10] = 45 days after application, rate g ai/ha: haloxyfop-P-methyl 27, florpyrauxifen-benzyl 2.2, mixture 27 + 2.2, sulfometuron 15, trinexapac 250, untreated 38.4
[11] = single application 50 L/ha 60 days before harvest, 30 DAA, rate g ai/ha: florpyrauxifen-benzyl 2.2, sulfometuron 15, trinexapac 250, untreated 2.8
[12] = single application 50 L/ha 60 days before harvest, 30 DAA, rate g ai/ha: florpyrauxifen-benzyl 2.2, sulfometuron 15, trinexapac 250, untreated 7.2
[13] = single application 50 L/ha 60 days before harvest, 30 DAA, rate g ai/ha: florpyrauxifen-benzyl 2.2, sulfometuron 15, trinexapac 250, untreated 25.2
[14] = single application 50 L/ha 60 days before harvest, 45 DAA, rate g ai/ha: florpyrauxifen-benzyl 2.2, sulfometuron 15, trinexapac 250, untreated 4.2
[15] = single application 50 L/ha 60 days before harvest, 45 DAA, rate g ai/ha: florpyrauxifen-benzyl 2.2, sulfometuron 15, trinexapac 250, untreated 7.7
[16] = single application 50 L/ha 60 days before harvest, 45 DAA, rate g ai/ha: florpyrauxifen-benzyl 2.2, sulfometuron 15, trinexapac 250, untreated 38.4

Structure (SMILES) | Gain Fiber (sugarcane [1]; [3]) | Gain POL (sugarcane [1]; [4]) | Gain Purity (sugarcane [1]; [5]) | Gain TRS (sugarcane [1]; [6]) | Gain Fiber (sugarcane [1]; [7]) | Gain POL (sugarcane [1]; [8]) | Gain Purity (sugarcane [1]; [9]) | Gain TRS (sugarcane [1]; [10]) | Gain POL (sugarcane [1]; [11]) | Gain Purity (sugarcane [1]; [12]) | Gain TRS (sugarcane [1]; [13]) | Gain POL (sugarcane [1]; [14]) | Gain Purity (sugarcane [1]; [15]) | Gain TRS (sugarcane [1]; [16]) | Gain Fiber (sugarcane [2]) | Gain POL (sugarcane [2]) | Gain Purity (sugarcane [2]) | Gain TRS (sugarcane [2]) | also measured
COc1c(Cl)ccc(-c2nc(C(=O)OCc3ccccc3)c(Cl)c(N)c2F)c1F [Florpyrauxifen-benzyl, florpyrauxifen-benzyl] | 0.5% | 2.6% | 7.5% | 23.0 kg/ton | 1.5% | 4.9% | 10.3% | 44.0 kg/ton | 2.6% | 7.5% | 23.0 kg/ton | 4.9% | 10.3% | 44.0 kg/ton | – | – | – | – | ripening performance (sugarcane [1]; at 30 DAA): comparable to the standards trinexapac and sulfometuron; ripening performance (sugarcane [1]; at 45 DAA): unexpectedly superior to the standards
COC(=O)c1ccccc1S(=O)(=O)NC(=O)Nc1nc(C)cc(C)n1 [Sulfometuron, sulfometuron-methyl] | 0.6% | 2.4% | 6.5% | 21.3 kg/ton | 0.6% | 3.6% | 10.9% | 31.4 kg/ton | 2.4% | 6.5% | 21.3 kg/ton | 3.6% | 10.9% | 31.4 kg/ton | 0.1% | 1.9% | 1.9% | 15.9 kg/ton | –
COC(=O)c1nc(-c2ccc(Cl)c(OC)c2F)cc(N)c1Cl [Halauxifen-methyl, halauxifen-methyl] | – | – | – | – | – | – | – | – | – | – | – | – | – | – | 0.5% | 3% | 7.1% | 25.4 kg/ton | –
O=C(O)CNCP(=O)(O)O [Glyphosate, glyphosate] | – | – | – | – | – | – | – | – | – | – | – | – | – | – | – | – | – | – | % Control (ratoon sugarcane; 14 DAA): 84.5%; % Control (ratoon sugarcane; 30 DAA): 89.3%; % Control (ratoon sugarcane; 45 DAA): 95.7%; % Control (ratoon sugarcane; 60 DAA): 96.0%
CCOC(=O)C1CC(=O)C(=C(O)C2CC2)C(=O)C1 (stereo not drawn) [Trinexapac, trinexapac-ethyl] | 0.4% | 2.9% | 6.8% | 25.8 kg/ton | 0.8% | 3.8% | 5.8% | 34.9 kg/ton | 2.9% | 6.8% | 25.0 kg/ton | 3.8% | 5.8% | 34.9 kg/ton | 0.4% | 2.5% | 5.8% | 21.8 kg/ton | –
